For this assay, the target named is T1, hGLP1 receptor (Homo sapiens, UniProt P43220).
T1 construct: expressed in transfected cells; host or cells: HEK (human embryonic kidney) cells co-expressing hGLP1 receptor and a CRE-Luciferase construct
Briefly: cAMP HTRF agonist assay in HEK cells co-expressing the hGLP1 receptor and CRE-Luciferase construct. Format: cell-based. Particulars: for potency relative to the parent peptide (1-4), fold less potent: versus parent 1-4. As for the experimental part: Human embryonic kidney cells (HEK) co-expressing the hGLP1 receptor and CRE-Luciferase construct were used to determine agonist potency in this assay. The cells were thawed briefly at 37° C., transferred to a sterile tube and re-suspended in complete media at 37° C. Cells were centrifuged at 1000 rpm for 5 minutes and cells collected; cells were re-suspended in assay buffer consisting of DPBS (GIBCO) with 500 μM of the phosphodiesterase inhibitor IBMX. […] The optimal cell density was determined to be 1000 cells/well; cells were added to wells in 384-well plates containing appropriate pre-prepared dilutions of compounds (test peptides or reference compound exendin-4), sealed and incubated with CO2 for 30 min. Test peptide solutions were diluted from 10 mM stock solutions; for most peptides an initial run was performed in duplicate from a maximal concentration of 1.0 μM, with 11 concentrations tested for each peptide using serial 1:3 dilution from this maximal concentration. […] The agonist assay was a homogeneous time-resolved fluorescence (HTRF) assay (Cisbio).
Following incubation of the cells for 30 minutes with test or reference peptides, 5 μL of the cAMP acceptor cAMP-d2, prepared previously as a working solution from frozen stock (1:20 dilution), was added to each well of the assay plate, along with 5 μL of anti-cAMP antibody-cryptate working solution (diluted 1:20 from frozen stock). The wells were incubated for 1 hour at room temperature, and fluorescence was then read at 665 and 615 nm with an Envision reader with TRF laser. Data were saved and analyzed using Prism software (GraphPad). Concentration-response analysis was performed using 4-parameter logistic fits of the resulting data, and EC50 values obtained for each test and reference compound.

The mark [1] stands for this setting: Table 6, cell annotated (0% albumin), read-out: cAMP EC50.
Setting [2] is: read-out: cAMP EC50, nM (0.1% albumin), Table 6, C-terminal PK-modifier conjugates, 0.1% albumin.

Where two headings read alike, the source gives them in different places. Numbered stars: 1 amine (or outer) side, 2 acyl side, 3 side chain; on linkers, the order of the positions; unused ones are H or OH. Square brackets hold non-standard residues; d marks the D form. Side chains are listed from the residue outwards. Peptide text beside a SMILES is read from it. * marks the point of attachment. X5 = O=C(O)CCCCCCCCCCCCCCCc1cn(-c2ccc(C[C@H](N[*:1])C(=O)[*:2])cc2)nn1; X3 = O=C(O)CCCCCCCCCCCCCCCc1cnnn1-c1ccc(C[C@H](N[*:1])C(=O)[*:2])cc1; X6 = O=C([C@H](CCc1ccc(OC(=O)[*:3])cc1)N[*:1])[*:2]; Bip = N[C@@H](Cc1ccc(-c2ccccc2)cc1)C(=O)O; Hydrocinnamoyl(4-I) = O=C(CCc1ccc(I)cc1)*; X2 = O=C(CCc1ccc(I)cc1)N[C@@H](CN*)C(=O)O; αMePhe(2-F) = C[C@](N)(Cc1ccccc1F)C(=O)O; hPhe = N[C@@H](CCc1ccccc1)C(=O)O; αMeF = C[C@](N)(Cc1ccccc1)C(=O)O; αMeP = C[C@@]1(C(=O)O)CCCN1; dDap = NC[C@@H](N)C(=O)O; AEEA = NCCOCCOCC(=O)O; Aib = CC(C)(N)C(=O)O; CO = O=C([*:1])[*:2]

T1 sequence (P43220 24-463): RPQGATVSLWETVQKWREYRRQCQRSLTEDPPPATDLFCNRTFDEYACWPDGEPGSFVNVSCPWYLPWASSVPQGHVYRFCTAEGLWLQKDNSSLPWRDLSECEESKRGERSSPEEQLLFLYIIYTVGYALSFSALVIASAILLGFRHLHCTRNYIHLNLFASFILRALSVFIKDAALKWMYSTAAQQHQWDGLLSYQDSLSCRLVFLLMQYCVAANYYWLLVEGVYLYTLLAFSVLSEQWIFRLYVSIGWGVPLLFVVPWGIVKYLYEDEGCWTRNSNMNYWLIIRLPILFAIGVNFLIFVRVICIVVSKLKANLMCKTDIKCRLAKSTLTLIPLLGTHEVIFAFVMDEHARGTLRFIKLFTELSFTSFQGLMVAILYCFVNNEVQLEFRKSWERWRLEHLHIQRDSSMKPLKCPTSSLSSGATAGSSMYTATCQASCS

A word on the EC50: it is the concentration needed to bring the measured effect to its halfway point. As for `C[C@@H](O)[C@H](NC(=O)CNC(=O)[C@H](CCC(=O)O)NC(=O)[C@]1(C)CCCN1C(=O)[C@@H](N)Cc1c[nH]cn1)C(=O)N[C@@](C)(Cc1ccccc1F)C(=O)N[C@H](C(=O)N[C@@H](CO)C(=O)N[C@@H](CC(=O)O)C(=O)N[C@@H](Cc1ccc(-c2ccccc2)cc1)C(=O)N[C@@H](Cc1ccc(-n2nncc2CCCCCCCCCCCCCCCC(=O)O)cc1)C(N)=O)[C@@H](C)O` [4-70-i2, H2N-His-α-MePro-Glu-Gly-Thr-α-MePhe(2-F)-Thr-Ser-Asp-Bip-FN3(C18 acid)-C(O)NH2] (H-H[αMeP]EGT[αMePhe(2-F)]TSD[Bip][X3]-NH2), the EC50 under setting [1] was 0.7 nM.

Take `C[C@@H](O)[C@H](NC(=O)CNC(=O)[C@H](CCC(=O)O)NC(=O)C(C)(C)NC(=O)[C@@H](N)Cc1c[nH]cn1)C(=O)N[C@@](C)(Cc1ccccc1F)C(=O)N[C@H](C(=O)N[C@@H](CO)C(=O)N[C@@H](CC(=O)O)C(=O)N[C@@H](Cc1ccc(-c2ccccc2)cc1)C(=O)N[C@@H](Cc1ccc(-c2ccccc2)cc1)C(=O)NCCOCCOCC(=O)NCCOCCOCC(=O)NCCOCCOCC(=O)N[C@H](CNC(=O)CCc1ccc(I)cc1)C(N)=O)[C@@H](C)O` [4-47, H2N-His-Aib-Glu-Gly-Thr-α-MePhe(2-F)-Thr-Ser-Asp-Bip-Bip-C(O)NH-RY9] (H-H[Aib]EGT[αMePhe(2-F)]TSD[Bip][Bip][AEEA][AEEA][AEEA][dDap](Hydrocinnamoyl(4-I))-NH2): the EC50 under setting [2] came out at 0.6 nM. Turning to `C[C@@H](O)[C@H](NC(=O)CNC(=O)[C@H](CCC(=O)O)NC(=O)C(C)(C)NC(=O)[C@@H](N)Cc1c[nH]cn1)C(=O)N[C@@](C)(Cc1ccccc1F)C(=O)N[C@H](C(=O)N[C@@H](CO)C(=O)N[C@@H](CC(=O)O)C(=O)N[C@@H](Cc1ccc(-c2ccccc2)cc1)C(=O)N[C@H](Cc1ccc(OC(=O)NCCOCCOCC(=O)NCCOCCOCC(=O)NCCOCCOCC(=O)NC[C@H](NC(=O)CCc2ccc(I)cc2)C(=O)O)cc1)C(N)=O)[C@@H](C)O` [(D)-4-44, H2N-His-Aib-Glu-Gly-Thr-α-MePhe(2-F)-Thr-Ser-Asp-Bip-D-Tyr(O-R6)-C(O)NH2] (H-H[Aib]EGT[αMePhe(2-F)]TSD[Bip][dY]([CO-AEEA-AEEA-AEEA-X2])-NH2), the EC50 under setting [2] was determined as 299 nM. For the molecule `C[C@@H](O)[C@H](NC(=O)CNC(=O)[C@H](CCC(=O)O)NC(=O)C(C)(C)NC(=O)[C@@H](N)Cc1c[nH]cn1)C(=O)N[C@@](C)(Cc1ccccc1F)C(=O)N[C@H](C(=O)N[C@@H](CO)C(=O)N[C@@H](CC(=O)O)C(=O)N[C@@H](Cc1ccc(-c2ccccc2)cc1)C(=O)N[C@@H](CCc1ccccc1)C(=O)O)[C@@H](C)O` [4-1, H2N-His-Aib-Glu-Gly-Thr-α-MePhe(2-F)-Thr-Ser-Asp-Bip-Hph-C(O)OH] (H-H[Aib]EGT[αMePhe(2-F)]TSD[Bip][hPhe]-OH), the “potency relative to the parent peptide (1-4), fold less potent” value is recorded as “about 30 fold”. With `C[C@@H](O)[C@H](NC(=O)CNC(=O)[C@H](CCC(=O)O)NC(=O)C(C)(C)NC(=O)[C@@H](N)Cc1c[nH]cn1)C(=O)N[C@@](C)(Cc1ccccc1)C(=O)N[C@H](C(=O)N[C@@H](CO)C(=O)N[C@@H](CC(=O)O)C(=O)N[C@@H](Cc1ccc(-c2ccccc2)cc1)C(=O)N[C@@H](Cc1ccc(-c2ccccc2)cc1)C(N)=O)[C@@H](C)O` [3-16, H2N-His-Aib-Glu-Gly-Thr-α-MePhe-Thr-Ser-Asp-Bip-Bip-C(O)NH2] (H-H[Aib]EGT[αMeF]TSD[Bip][Bip]-NH2), where the note is “cAMP EC50, nM (0.1% albumin), Table 1, Phe6 modifications, 0.1% albumin”, a half-maximal effect (EC50) was put at 0.32 nM. Consider `C[C@@H](O)[C@H](NC(=O)CNC(=O)[C@H](CCC(=O)O)NC(=O)C(C)(C)NC(=O)[C@@H](N)Cc1c[nH]cn1)C(=O)N[C@@](C)(Cc1ccccc1F)C(=O)N[C@H](C(=O)N[C@@H](CO)C(=O)N[C@@H](CC(=O)O)C(=O)N[C@@H](Cc1ccc(-c2ccccc2)cc1)C(=O)N[C@@H](CCc1ccccc1)C(=O)NCCOCCOCC(=O)NCCOCCOCC(=O)NCCOCCOCC(=O)NC[C@H](NC(=O)CCc1ccc(I)cc1)C(=O)O)[C@@H](C)O` [4-37, H2N-His-Aib-Glu-Gly-Thr-α-MePhe(2-F)-Thr-Ser-Asp-Bip-Hph-C(O)NH-RY3] (H-H[Aib]EGT[αMePhe(2-F)]TSD[Bip][hPhe][AEEA][AEEA][AEEA]-X2), for which the “potency relative to the parent peptide (1-4), fold less potent” value is on record as “equipotency”. The EC50 under setting [2] turned out to be 4.08 nM.

For `C[C@@H](O)[C@H](NC(=O)CNC(=O)[C@H](CCC(=O)O)NC(=O)C(C)(C)NC(=O)[C@@H](N)Cc1c[nH]cn1)C(=O)N[C@@](C)(Cc1ccccc1F)C(=O)N[C@H](C(=O)N[C@@H](CO)C(=O)N[C@@H](CC(=O)O)C(=O)N[C@@H](Cc1ccc(-c2ccccc2)cc1)C(=O)N[C@@H](CCc1ccc(OC(=O)NCCOCCOCC(=O)NCCOCCOCC(N)=O)cc1)C(N)=O)[C@@H](C)O` [4-38, H2N-His-Aib-Glu-Gly-Thr-α-MePhe(2-F)-Thr-Ser-Asp-Bip-Hph(4-OR4)-C(O)NH2] (H-H[Aib]EGT[αMePhe(2-F)]TSD[Bip][X6]([AEEA-AEEA-NH2])-NH2), the EC50 under setting [2] worked out at 320 nM. Take `C[C@@H](O)[C@H](NC(=O)CNC(=O)[C@H](CCC(=O)O)NC(=O)[C@]1(C)CCCN1C(=O)[C@@H](N)Cc1c[nH]cn1)C(=O)N[C@@](C)(Cc1ccccc1F)C(=O)N[C@H](C(=O)N[C@@H](CO)C(=O)N[C@@H](CC(=O)O)C(=O)N[C@@H](Cc1ccc(-c2ccccc2)cc1)C(=O)N[C@@H](Cc1ccc(-n2cc(CCCCCCCCCCCCCCCC(=O)O)nn2)cc1)C(N)=O)[C@@H](C)O` [4-70-i1, H2N-His-α-MePro-Glu-Gly-Thr-α-MePhe(2-F)-Thr-Ser-Asp-Bip-FN3(C18 acid)-C(O)NH2] (H-H[αMeP]EGT[αMePhe(2-F)]TSD[Bip][X5]-NH2): under setting [1], the EC50 amounted to 0.04 nM. `C[C@@H](O)[C@H](NC(=O)CNC(=O)[C@H](CCC(=O)O)NC(=O)C(C)(C)NC(=O)[C@@H](N)Cc1c[nH]cn1)C(=O)N[C@@](C)(Cc1ccccc1F)C(=O)N[C@H](C(=O)N[C@@H](CO)C(=O)N[C@@H](CC(=O)O)C(=O)N[C@@H](Cc1ccc(-c2ccccc2)cc1)C(=O)N[C@@H](CCc1ccc(OC(=O)NCCOCCOCC(=O)NCCOCCOCC(=O)NCCOCCOCC(=O)NC[C@H](NC(=O)CCc2ccc(I)cc2)C(=O)O)cc1)C(N)=O)[C@@H](C)O` [4-40, H2N-His-Aib-Glu-Gly-Thr-α-MePhe(2-F)-Thr-Ser-Asp-Bip-Hph(4-OR6)-C(O)NH2] (H-H[Aib]EGT[αMePhe(2-F)]TSD[Bip][X6]([AEEA-AEEA-AEEA-X2])-NH2): under setting [2], the EC50 was 49.7 nM. `CC(C)[C@H](NC(=O)[C@@H](N)Cc1c[nH]cn1)C(=O)N[C@@H](CCC(=O)O)C(=O)NCC(=O)N[C@H](C(=O)N[C@@](C)(Cc1ccccc1F)C(=O)N[C@H](C(=O)N[C@@H](CO)C(=O)N[C@@H](CC(=O)O)C(=O)N[C@@H](Cc1ccc(-c2ccccc2)cc1)C(=O)N[C@@H](Cc1ccc(-c2ccccc2)cc1)C(N)=O)[C@@H](C)O)[C@@H](C)O` [3-39, H2N-His-Val-Glu-Gly-Thr-α-MePhe(2-F)-Thr-Ser-Asp-Bip-Bip-C(O)NH2] (H-HVEGT[αMePhe(2-F)]TSD[Bip][Bip]-NH2): the “potency compared with the parent peptide analog (1-2), in words” value (replacement of Aib2, versus parent 1-2) is “slightly less potency”.
